# Measured values as given in PubChem BioAssay AID2060610 (Molecular Pharmacology Branch, DTP, NCI, 2025).
# System: 616215-338-R-J1-PDC complex spheroids, viability % test/control
# Assay: Anticancer human tumor 616215-338-R-J1-PDC patient-derived colon adenocarcinoma cell line growth inhibition [CLK]
# Conditions: for viability, T/C: stronger effect = lower value
# In short: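 Patient-derived tumor cells grown as complex spheroids with HUVEC endothelial cells and mesenchymal stem cells, treated with drug combinations. Concentrations descend in half-log steps from near clinical Cmax, or from 10 microM if Cmax unknown.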
# [1] = curve of first compound, second compound 0.0316 µM
# [2] = curve of first compound, second compound 0.1 µM
# [3] = curve of first compound, second compound 0.316 µM
# [4] = curve of first compound, second compound 1 µM
# [5] = curve of first compound, second compound 3.16 µM
# [6] = curve of first compound, second compound 10 µM
# [7] = second compound 0.0316 µM, first compound 0.0316 µM
# [8] = second compound 0.0316 µM, first compound 0.1 µM
# [9] = second compound 0.0316 µM, first compound 0.316 µM
# [10] = second compound 0.0316 µM, first compound 1 µM
# [11] = second compound 0.0316 µM, first compound 3.16 µM
# [12] = second compound 0.0316 µM, first compound 10 µM
# [13] = second compound 0.1 µM, first compound 0.0316 µM
# [14] = second compound 0.1 µM, first compound 0.1 µM
# [15] = second compound 0.1 µM, first compound 0.316 µM
# [16] = second compound 0.1 µM, first compound 1 µM
# [17] = second compound 0.1 µM, first compound 3.16 µM
# [18] = second compound 0.1 µM, first compound 10 µM
# [19] = second compound 0.316 µM, first compound 0.0316 µM
# [20] = second compound 0.316 µM, first compound 0.1 µM
# [21] = second compound 0.316 µM, first compound 0.316 µM
# [22] = second compound 0.316 µM, first compound 1 µM
# [23] = second compound 0.316 µM, first compound 3.16 µM
# [24] = second compound 0.316 µM, first compound 10 µM
# [25] = second compound 1 µM, first compound 0.0316 µM
# [26] = second compound 1 µM, first compound 0.1 µM
# [27] = second compound 1 µM, first compound 0.316 µM
# [28] = second compound 1 µM, first compound 1 µM
# [29] = second compound 1 µM, first compound 3.16 µM
# [30] = second compound 1 µM, first compound 10 µM
# [31] = second compound 3.16 µM, first compound 0.0316 µM
# [32] = second compound 3.16 µM, first compound 0.1 µM
# [33] = second compound 3.16 µM, first compound 0.316 µM
# [34] = second compound 3.16 µM, first compound 1 µM
# [35] = second compound 3.16 µM, first compound 3.16 µM
# [36] = second compound 3.16 µM, first compound 10 µM
# [37] = second compound 10 µM, first compound 0.0316 µM
# [38] = second compound 10 µM, first compound 0.1 µM
# [39] = second compound 10 µM, first compound 0.316 µM
# [40] = second compound 10 µM, first compound 1 µM
# [41] = second compound 10 µM, first compound 3.16 µM
# [42] = second compound 10 µM, first compound 10 µM
# 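Also: spheroids exposed to agents for 7 days.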
# 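For viability, T/C in this document: 100% = DMSO vehicle wells.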
smiles,measurement,setting,value
CN1CCN(c2cc(C(=O)Nc3cc4cc(-c5cnn(C)c5)ccc4cn3)ccn2)CC1,"viability, T/C",compound 0.0316 µM,99.7% [middle of 12 runs]
same,"viability, T/C",compound 0.1 µM,107% [middle of 12 runs]
same,"viability, T/C",compound 0.316 µM,34.7% [middle of 12 runs]
same,"viability, T/C",compound 1 µM,1.63% [middle of 11 runs]
same,"viability, T/C",compound 3.16 µM,1% [middle of 11 runs]
same,"viability, T/C",compound 10 µM,0.25% [middle of 10 runs]
same,IC50,"compound alone, run of 07/31/2023",238 nM [middle of 11 runs]
C=C(F)C(=O)N1CCN(c2nc(OCC3CCCN3C)nc3c2CCN(c2cccc4cccc(Cl)c24)C3)CC1CC#N (stereo unspecified) + CN1CCN(c2cc(C(=O)Nc3cc4cc(-c5cnn(C)c5)ccc4cn3)ccn2)CC1,IC50,[1],5.87 µM
same,IC50,[2],6.07 µM
same,IC50,[3],< 0.0316 µM
same,IC50,[4],< 0.0316 µM
same,IC50,[5],< 0.0316 µM
same,IC50,[6],< 0.0316 µM
same,"viability, T/C",[7],102%
same,"viability, T/C",[8],109%
same,"viability, T/C",[9],105%
same,"viability, T/C",[10],106%
same,"viability, T/C",[11],116%
same,"viability, T/C",[12],0.26%
same,"viability, T/C",[13],114%
same,"viability, T/C",[14],120%
same,"viability, T/C",[15],107%
same,"viability, T/C",[16],116%
same,"viability, T/C",[17],119%
same,"viability, T/C",[18],0.19%
same,"viability, T/C",[19],35.1%
same,"viability, T/C",[20],45.4%
same,"viability, T/C",[21],40.2%
same,"viability, T/C",[22],38.8%
same,"viability, T/C",[23],11.3%
same,"viability, T/C",[24],0.12%
same,"viability, T/C",[25],0.28%
same,"viability, T/C",[26],0.24%
same,"viability, T/C",[27],0.31%
same,"viability, T/C",[28],0.16%
same,"viability, T/C",[29],0.14%
same,"viability, T/C",[30],0.11%
same,"viability, T/C",[31],0.16%
same,"viability, T/C",[32],0.16%
same,"viability, T/C",[33],0.16%
same,"viability, T/C",[34],0.18%
same,"viability, T/C",[35],2.55%
same,"viability, T/C",[36],3.36%
same,"viability, T/C",[37],0.24%
same,"viability, T/C",[38],0.21%
same,"viability, T/C",[39],0.22%
same,"viability, T/C",[40],0.25%
same,"viability, T/C",[41],1.31%
same,"viability, T/C",[42],0.21%
C=C(F)C(=O)N1CCN(c2nc(OCC3CCCN3C)nc3c2CCN(c2cccc4cccc(Cl)c24)C3)CC1CC#N (stereo unspecified) + CNC(=O)c1ccc(Nc2nc(OC3CCCC3)c3c(-c4ccc5nc(C)oc5c4)c[nH]c3n2)c(OC)c1,IC50,[1],5.78 µM
same,IC50,[2],< 0.0316 µM
same,IC50,[3],< 0.0316 µM
same,IC50,[4],< 0.0316 µM
same,IC50,[5],< 0.0316 µM
same,IC50,[6],< 0.0316 µM
same,"viability, T/C",[7],95.2%
same,"viability, T/C",[8],96.9%
same,"viability, T/C",[9],90.9%
same,"viability, T/C",[10],104%
same,"viability, T/C",[11],106%
same,"viability, T/C",[12],5.6%
same,"viability, T/C",[13],46%
same,"viability, T/C",[14],38.4%
same,"viability, T/C",[15],47.9%
same,"viability, T/C",[16],46.2%
same,"viability, T/C",[17],44.9%
same,"viability, T/C",[18],1.3%
same,"viability, T/C",[19],48.4%
same,"viability, T/C",[20],45.2%
same,"viability, T/C",[21],46.6%
same,"viability, T/C",[22],40.4%
same,"viability, T/C",[23],42.1%
same,"viability, T/C",[24],1.18%
same,"viability, T/C",[25],49.8%
same,"viability, T/C",[26],50.5%
same,"viability, T/C",[27],47.5%
same,"viability, T/C",[28],42.1%
same,"viability, T/C",[29],30.7%
same,"viability, T/C",[30],0.72%
same,"viability, T/C",[31],42.7%
same,"viability, T/C",[32],49.1%
same,"viability, T/C",[33],41.2%
same,"viability, T/C",[34],31.5%
same,"viability, T/C",[35],20.8%
same,"viability, T/C",[36],0.22%
same,"viability, T/C",[37],45.3%
same,"viability, T/C",[38],43%
same,"viability, T/C",[39],42.8%
same,"viability, T/C",[40],33.2%
same,"viability, T/C",[41],16.4%
same,"viability, T/C",[42],0.29%
